Assay results: BindingDB's records for doi:10.1021/jm00044a007 (Research Triangle Institute, 1994)

Biological target: Sodium-dependent dopamine transporter (Rattus norvegicus, UniProt P23977)
Experiment: Concentration required to inhibit 50% of radioligand binding ([3H]WIN-35428) to the dopamine (DA) transporter in rat

Sequence of Sodium-dependent dopamine transporter (P23977 whole entry): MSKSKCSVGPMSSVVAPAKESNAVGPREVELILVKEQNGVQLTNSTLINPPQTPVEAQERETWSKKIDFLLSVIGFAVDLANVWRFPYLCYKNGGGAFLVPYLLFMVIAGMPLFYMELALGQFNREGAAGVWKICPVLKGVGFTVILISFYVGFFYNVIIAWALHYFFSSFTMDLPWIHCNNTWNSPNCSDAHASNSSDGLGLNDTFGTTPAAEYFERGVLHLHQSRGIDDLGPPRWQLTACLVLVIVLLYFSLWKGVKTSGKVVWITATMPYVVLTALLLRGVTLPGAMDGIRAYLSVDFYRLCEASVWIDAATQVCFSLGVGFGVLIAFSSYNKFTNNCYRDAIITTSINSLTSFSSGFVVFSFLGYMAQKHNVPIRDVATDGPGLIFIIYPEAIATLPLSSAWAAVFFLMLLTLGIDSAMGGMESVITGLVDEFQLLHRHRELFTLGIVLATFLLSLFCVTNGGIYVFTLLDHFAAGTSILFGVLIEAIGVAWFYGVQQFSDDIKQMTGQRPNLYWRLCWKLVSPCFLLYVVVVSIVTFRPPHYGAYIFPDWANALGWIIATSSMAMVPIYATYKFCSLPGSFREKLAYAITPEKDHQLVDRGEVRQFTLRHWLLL

Work on `COC(=O)C1C2CCC(C[C@@H]1c1cc[c]([Sn]([CH3])([CH3])[CH3])cc1)N2C` (stereo partly drawn) [(3S,8R)-8-Methyl-3-(4-trimethylstannanyl-phenyl)-8-aza-bicyclo[3.2.1]octane-2-carboxylic acid methyl ester] yielded an IC50 of 144 nM.
